Results published in PubChem BioAssay (NCI).
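Grown in 96-well plates, cells were treated for 48 hours with each compound at five concentrations. Insufficient inhibition: endpoint recorded as highest concentration tested. GI50 = concentration required for 50% inhibition of growth. TGI denotes the concentration required for complete inhibition of growth.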

Assays:
Experiment in all cases: NCI tumour cell line growth inhibition, 48 h
SF-539 CNS = system: SF-539 CNS
MALME-3M melanoma = system: MALME-3M melanoma
IGROV1 ovarian = system: IGROV1 ovarian
MCF7 breast = system: MCF7 breast
NCI-H460 lung = system: NCI-H460 lung
SN12C renal = system: SN12C renal
UO-31 renal = system: UO-31 renal
SNB-19 CNS = system: SNB-19 CNS
HCT-116 colon = system: HCT-116 colon
SR leukemia = system: SR leukemia
HT29 colon = system: HT29 colon
MDA-MB-435 = system: MDA-MB-435
SW-620 colon = system: SW-620 colon
COLO 205 colon = system: COLO 205 colon
RXF 393 renal = system: RXF 393 renal
SK-OV-3 ovarian = system: SK-OV-3 ovarian
ACHN renal = system: ACHN renal
K-562 leukemia = system: K-562 leukemia
OVCAR-5 ovarian = system: OVCAR-5 ovarian
786-0 renal = system: 786-0 renal
DU-145 prostate = system: DU-145 prostate
RPMI-8226 leukemia = system: RPMI-8226 leukemia
OVCAR-8 ovarian = system: OVCAR-8 ovarian
PC-3 prostate = system: PC-3 prostate
NCI/ADR-RES ovarian = system: NCI/ADR-RES ovarian
NCI-H226 lung = system: NCI-H226 lung
T-47D breast = system: T-47D breast
KM12 colon = system: KM12 colon
NCI-H522 lung = system: NCI-H522 lung
U251 CNS = system: U251 CNS
BT-549 breast = system: BT-549 breast
MDA-MB-231 breast = system: MDA-MB-231 breast
HL-60(TB) leukemia = system: HL-60(TB) leukemia
UACC-257 melanoma = system: UACC-257 melanoma
SF-268 CNS = system: SF-268 CNS
NCI-H23 lung = system: NCI-H23 lung
MOLT-4 leukemia = system: MOLT-4 leukemia
HS 578T breast = system: HS 578T breast
UACC-62 melanoma = system: UACC-62 melanoma
LOX IMVI melanoma = system: LOX IMVI melanoma
OVCAR-3 ovarian = system: OVCAR-3 ovarian
SK-MEL-28 melanoma = system: SK-MEL-28 melanoma
M14 melanoma = system: M14 melanoma
HCT-15 colon = system: HCT-15 colon
SNB-75 CNS = system: SNB-75 CNS
SF-295 CNS = system: SF-295 CNS
HOP-62 NSCLC = system: HOP-62 NSCLC
TK-10 renal = system: TK-10 renal
HCC-2998 colon = system: HCC-2998 colon
SK-MEL-2 melanoma = system: SK-MEL-2 melanoma
CAKI-1 renal = system: CAKI-1 renal
SK-MEL-5 melanoma = system: SK-MEL-5 melanoma
HOP-92 NSCLC = system: HOP-92 NSCLC
CCRF-CEM leukemia = system: CCRF-CEM leukemia
A498 renal = system: A498 renal
EKVX NSCLC = system: EKVX NSCLC
OVCAR-4 ovarian = system: OVCAR-4 ovarian
A549 NSCLC = system: A549 NSCLC

For Cc1ccc(Nc2ccnc(Nc3cccc(C(N)=O)c3)n2)cc1O, the GI50 (SF-539 CNS) was 3.46 µM, the TGI (SF-539 CNS) was 11.1 µM and the GI50 (MALME-3M melanoma) was 6.27 µM. The TGI (MALME-3M melanoma) was > 25 µM, the GI50 (IGROV1 ovarian) was 5.37 µM and the TGI (IGROV1 ovarian) was 15.1 µM. The GI50 (MCF7 breast) was 8.28 µM, the TGI (MCF7 breast) was > 25 µM and the GI50 (NCI-H460 lung) was 11.4 µM. For the same molecule, the TGI (NCI-H460 lung) was > 25 µM, the GI50 (SN12C renal) was 3.7 µM and the TGI (SN12C renal) was > 25 µM. For the same molecule, the GI50 (UO-31 renal) was 0.846 µM, the TGI (UO-31 renal) was 11.9 µM and the GI50 (SNB-19 CNS) was 11.5 µM. For the same molecule, the TGI (SNB-19 CNS) was > 25 µM, the GI50 (HCT-116 colon) was 8.01 µM and the TGI (HCT-116 colon) was > 25 µM. The GI50 (SR leukemia) was 11.3 µM, the TGI (SR leukemia) was > 25 µM and the GI50 (HT29 colon) was 13.9 µM. The TGI (HT29 colon) was > 25 µM, the GI50 (MDA-MB-435) was 7.98 µM and the TGI (MDA-MB-435) was > 25 µM. For the same molecule, the GI50 (SW-620 colon) was 9.62 µM, the TGI (SW-620 colon) was > 25 µM and the GI50 (COLO 205 colon) was 10.1 µM. For the same molecule, the TGI (COLO 205 colon) was > 20.6 µM, the GI50 (RXF 393 renal) was 0.895 µM and the TGI (RXF 393 renal) was 4.84 µM. For the same molecule, the GI50 (SK-OV-3 ovarian) was 1.96 µM, the TGI (SK-OV-3 ovarian) was 12.1 µM and the GI50 (ACHN renal) was 4.32 µM. For the same molecule, the TGI (ACHN renal) was > 25 µM, the GI50 (K-562 leukemia) was 1.34 µM and the TGI (K-562 leukemia) was > 25 µM. For the same molecule, the GI50 (OVCAR-5 ovarian) was 10.2 µM, the TGI (OVCAR-5 ovarian) was > 25 µM and the GI50 (786-0 renal) was 8.09 µM. For the same molecule, the TGI (786-0 renal) was > 25 µM, the GI50 (DU-145 prostate) was 7.14 µM and the TGI (DU-145 prostate) was > 25 µM. For the same molecule, the GI50 (RPMI-8226 leukemia) was > 25 µM, the TGI (RPMI-8226 leukemia) was > 25 µM and the GI50 (OVCAR-8 ovarian) was 6.51 µM. For the same molecule, the TGI (OVCAR-8 ovarian) was > 25 µM, the GI50 (PC-3 prostate) was 5.42 µM and the TGI (PC-3 prostate) was > 25 µM. The GI50 (NCI/ADR-RES ovarian) was > 18.7 µM, the TGI (NCI/ADR-RES ovarian) was > 25 µM and the GI50 (NCI-H226 lung) was 5.43 µM. The TGI (NCI-H226 lung) was > 23.7 µM, the GI50 (T-47D breast) was 4.74 µM and the TGI (T-47D breast) was > 21.2 µM. For the same molecule, the GI50 (KM12 colon) was 7.27 µM, the TGI (KM12 colon) was > 25 µM and the GI50 (NCI-H522 lung) was 3.22 µM. For the same molecule, the TGI (NCI-H522 lung) was > 15.1 µM, the GI50 (U251 CNS) was 7.84 µM and the TGI (U251 CNS) was > 25 µM. For the same molecule, the GI50 (BT-549 breast) was 6.4 µM, the TGI (BT-549 breast) was > 25 µM and the GI50 (MDA-MB-231 breast) was 4.27 µM. For the same molecule, the TGI (MDA-MB-231 breast) was > 25 µM, the GI50 (HL-60(TB) leukemia) was 8.1 µM and the TGI (HL-60(TB) leukemia) was > 25 µM. The GI50 (UACC-257 melanoma) was 15.5 µM, the TGI (UACC-257 melanoma) was > 25 µM and the GI50 (SF-268 CNS) was 3.84 µM. The TGI (SF-268 CNS) was > 17.7 µM, the GI50 (NCI-H23 lung) was 9.44 µM and the TGI (NCI-H23 lung) was > 25 µM. For the same molecule, the GI50 (MOLT-4 leukemia) was 10.5 µM, the TGI (MOLT-4 leukemia) was > 25 µM and the GI50 (HS 578T breast) was 0.742 µM. For the same molecule, the TGI (HS 578T breast) was 8.98 µM, the GI50 (UACC-62 melanoma) was 7.08 µM and the TGI (UACC-62 melanoma) was > 25 µM. The GI50 (LOX IMVI melanoma) was 3.02 µM, the TGI (LOX IMVI melanoma) was 7.22 µM and the GI50 (OVCAR-3 ovarian) was 6.65 µM. The TGI (OVCAR-3 ovarian) was > 25 µM, the GI50 (SK-MEL-28 melanoma) was 11.2 µM and the TGI (SK-MEL-28 melanoma) was > 25 µM. The GI50 (M14 melanoma) was 5.87 µM, the TGI (M14 melanoma) was > 25 µM and the GI50 (HCT-15 colon) was 7.16 µM. The TGI (HCT-15 colon) was > 25 µM, the GI50 (SNB-75 CNS) was 0.431 µM and the TGI (SNB-75 CNS) was 3.93 µM. The GI50 (SF-295 CNS) was 7.69 µM, the TGI (SF-295 CNS) was > 25 µM and the GI50 (HOP-62 NSCLC) was 5.5 µM. For the same molecule, the TGI (HOP-62 NSCLC) was > 19 µM, the GI50 (TK-10 renal) was 6.39 µM and the TGI (TK-10 renal) was 17.6 µM. The GI50 (HCC-2998 colon) was 12.6 µM, the TGI (HCC-2998 colon) was > 25 µM and the GI50 (SK-MEL-2 melanoma) was 8.45 µM. The TGI (SK-MEL-2 melanoma) was > 25 µM, the GI50 (CAKI-1 renal) was 4.11 µM and the TGI (CAKI-1 renal) was 19 µM. The GI50 (SK-MEL-5 melanoma) was 6.63 µM, the TGI (SK-MEL-5 melanoma) was > 21.6 µM and the GI50 (HOP-92 NSCLC) was 0.891 µM. The TGI (HOP-92 NSCLC) was 8.25 µM, the GI50 (CCRF-CEM leukemia) was 7.99 µM and the TGI (CCRF-CEM leukemia) was > 25 µM. For the same molecule, the GI50 (A498 renal) was 7.31 µM, the TGI (A498 renal) was > 25 µM and the GI50 (EKVX NSCLC) was 9.2 µM. For the same molecule, the TGI (EKVX NSCLC) was > 25 µM, the GI50 (OVCAR-4 ovarian) was 6.19 µM and the TGI (OVCAR-4 ovarian) was > 25 µM. The GI50 (A549 NSCLC) was 8.44 µM and the TGI (A549 NSCLC) was > 25 µM.
